Measurements: patent publication US20070026080A1, “Manufacturing process for tigecycline” (Wyeth, priority 2005, published 2007)
Values joined by “and” are separate entries in the source; they are usually repeats but may differ in a detail not shown here. Equal values may be shown once.

Experiment: Strength and degradation profile of tigecycline 20 mg/mL bulk solutions by reversed phase HPLC (effect of temperature, time, pH, dissolved oxygen; Runs A to O)
Type: physicochemical
Settings: 20 mg/mL
Experimental: The contents of the sample vials are dissolved in diluent. The sample solution is diluted, if necessary, and chromatographed on a reversed phase column using gradient elution. Impurities are determined by comparing the impurity peak areas in the sample preparation chromatogram to the average area of tigecycline peaks in the standard preparation chromatograms obtained concomitantly.
Chromatographic Column—Length about 15 cm, inside diameter about 4.6 mm, packed with Inertsil ODS2, 5 μm size particles or equivalent.
Detector—Ultraviolet spectrophotometric detector capable of operating at 248 nm with a sensitivity of about 0.5 absorbance units full scale.
The results of additional studies to investigate the effect of processing parameters such as temperature, time, and dissolved oxygen content on the purity profile of tigecycline solutions using the following materials, methods and procedures are presented in Tables A to O.
The experiments were run in plastic glove bags under normal laboratory light conditions. Plastic glove boxes will be used to control the headspace of the beakers. The batch size was 200 mL. • 1. Prepare the glove bag with a mixture of nitrogen and air to achieve an oxygen level in the solution as per the design. • 2. Place the jacketed beaker on the magnetic stirrer. Connect it to the cooler. Set the cooler to the desired set point. • 3. Add 200 mL of SWFI in to the beaker. Allow equilibrating. Measure the temperature and oxygen content. When it reaches the desired condition, add accurately weighed API and mix until dissolved. If necessary use spatula to aid dissolution. For pH adjustments, use 4 mL of either 0.1N NaOH or 0.1N HCl and 196 mL of WFI for manufacture. • 4. After complete dissolution, Transfer about 5.5 mL of Solution in vials and stopper them. These vials will be stoppered at the appropriate headspace conditions. Place the vials in appropriate temperature conditions. • 5. Sample the vials at 1, 4, 8, 10, 12 and 24 hours. Send the samples for analysis. Freeze the 10, 12 and 24 samples at −20° C. for analysis the following day. • 6. Measure pH and record color of the solution at each time point. Results
The 1-hour samples were taken directly from the beakers. Samples for later time points were collected in stoppered vials processed in the atmosphere of the bag in order to simulate the headspace conditions then placed in water baths or refrigerator to maintain there respective temperature conditions. This was done to maintain safety in the lab. Disposable plastic glove bags require constant flow of a mixture of nitrogen and air to maintain headspace oxygen level that will result in the desired dissolved oxygen (DO) content in the sample. The pH of samples was measured at each sample points.
Strength and degradation profile was analyzed by HPLC as described above. […] Degradation was slightly higher at higher temperature condition.

[1] = Run #A, 2° C., pH 8.2, Oxygen 2.0 mg/L, hours 1,4,8,10,12,24 at r6-r11
[2] = Run #A, 2° C., pH 8.2, Oxygen 2.0 mg/L, hours 1,4,8,10,12,24 at r17-r22
[3] = Run #B, 8° C., pH 8.2, Oxygen 2.0 mg/L, hours 1,4,8,10,12,24 at r6-r11, 1 hours
[4] = Run #B, 8° C., pH 8.2, Oxygen 2.0 mg/L, hours 1,4,8,10,12,24 at r6-r11, 4 hours
[5] = Run #B, 8° C., pH 8.2, Oxygen 2.0 mg/L, hours 1,4,8,10,12,24 at r6-r11, 8 hours
[6] = Run #B, 8° C., pH 8.2, Oxygen 2.0 mg/L, hours 1,4,8,10,12,24 at r6-r11, 10 hours
[7] = Run #B, 8° C., pH 8.2, Oxygen 2.0 mg/L, hours 1,4,8,10,12,24 at r6-r11, 12 hours
[8] = Run #B, 8° C., pH 8.2, Oxygen 2.0 mg/L, hours 1,4,8,10,12,24 at r6-r11, 24 hours
[9] = Run #B, 8° C., pH 8.2, Oxygen 2.0 mg/L, hours 1,4,8,10,12,24 at r17-r22, 1 hours
[10] = Run #B, 8° C., pH 8.2, Oxygen 2.0 mg/L, hours 1,4,8,10,12,24 at r17-r22, 4 hours
[11] = Run #B, 8° C., pH 8.2, Oxygen 2.0 mg/L, hours 1,4,8,10,12,24 at r17-r22, 8 hours
[12] = Run #B, 8° C., pH 8.2, Oxygen 2.0 mg/L, hours 1,4,8,10,12,24 at r17-r22, 10 hours
[13] = Run #B, 8° C., pH 8.2, Oxygen 2.0 mg/L, hours 1,4,8,10,12,24 at r17-r22, 12 hours
[14] = Run #B, 8° C., pH 8.2, Oxygen 2.0 mg/L, hours 1,4,8,10,12,24 at r17-r22, 24 hours
[15] = Run #C, 2° C., pH 7.7, Oxygen 2 mg/L, hours 1,4,8,10,12,24 at r6-r11
[16] = Run #C, 2° C., pH 7.7, Oxygen 2 mg/L, hours 1,4,8,10,12,24 at r6-r11, 1 h hold time
[17] = Run #C, 2° C., pH 7.7, Oxygen 2 mg/L, hours 1,4,8,10,12,24 at r6-r11, 4 h hold time
[18] = Run #C, 2° C., pH 7.7, Oxygen 2 mg/L, hours 1,4,8,10,12,24 at r6-r11, 10 h hold time
[19] = Run #C, 2° C., pH 7.7, Oxygen 2 mg/L, hours 1,4,8,10,12,24 at r6-r11, 12 h hold time
[20] = Run #C, 2° C., pH 7.7, Oxygen 2 mg/L, hours 1,4,8,10,12,24 at r6-r11, 24 h hold time
[21] = Run #C, 2° C., pH 7.7, Oxygen 2 mg/L, hours 1,4,8,10,12,24 at r17-r22, 1 h hold time
[22] = Run #C, 2° C., pH 7.7, Oxygen 2 mg/L, hours 1,4,8,10,12,24 at r17-r22, 4 h hold time
[23] = Run #C, 2° C., pH 7.7, Oxygen 2 mg/L, hours 1,4,8,10,12,24 at r17-r22, 8 h hold time
[24] = Run #C, 2° C., pH 7.7, Oxygen 2 mg/L, hours 1,4,8,10,12,24 at r17-r22, 10 h hold time
[25] = Run #C, 2° C., pH 7.7, Oxygen 2 mg/L, hours 1,4,8,10,12,24 at r17-r22, 24 h hold time
[26] = Run #D, 8° C., pH 7.7, Oxygen 2.0 mg/L, hours 1,4,8,10,12,24 at r6-r11, after 1 hours

CN(C)c1cc(NC(=O)CNC(C)(C)C)c(O)c2c1C[C@H]1C[C@H]3[C@H](N(C)C)C(O)=C(C(N)=O)C(=O)[C@@]3(O)C(O)=C1C2=O [Tigecycline]
RRT 0.58 [1]: 0.06% and 0.07% | RRT 0.64 9-Amino [1]: BRL (BRL means below reporting limit (meaning less than 0.05% of tigecycline peak)) | RRT 0.74 Epimer [1]: 0.26% and 0.23% and 0.18% and 0.20% and 0.19% and 0.25% | Strength [1]: 19.901 mg/mL and 19.504 mg/mL and 19.639 mg/mL and 19.610 mg/mL and 19.473 mg/mL and 19.806 mg/mL | RRT 1.12 [2]: BRL (BRL means below reporting limit (meaning less than 0.05% of tigecycline peak)) | RRT 1.45 [2]: 0.06% and 0.08% and 0.07% and 0.09% | RRT 1.58 [2]: BRL (BRL means below reporting limit (meaning less than 0.05% of tigecycline peak)) | RRT 1.64 Mino [2]: 0.10% and 0.11% | RRT 1.85 MW = 597 [2]: 0.06% and 0.08% and 0.07% and 0.14% | Total [2]: 0.47% and 0.76% and 0.86% and 1.26% and 1.40% and 1.86% | RRT 0.55 MW = 583 [3]: 0.11% | Strength [3]: 19.149 mg/mL | RRT 0.55 MW = 583 [4]: 0.20% | Strength [4]: 19.046 mg/mL | RRT 0.55 MW = 583 [5]: 0.27% | Strength [5]: 18.795 mg/mL | RRT 0.55 MW = 583 [6]: 0.32% | Strength [6]: 19.144 mg/mL | RRT 0.55 MW = 583 [7]: 0.29% | Strength [7]: 18.668 mg/mL | RRT 0.55 MW = 583 [8]: 0.42% | Strength [8]: 17.784 mg/mL | RRT 0.74 Epimer [9]: 0.20% | RRT 1.64 Mino [9]: 0.10% | RRT 1.67 MW = 556 [9]: 0.14% | RRT 1.85 MW = 597 [9]: 0.08% | Total [9]: 0.75% | RRT 0.74 Epimer [10]: 0.19% | RRT 1.64 Mino [10]: 0.05% | RRT 1.67 MW = 556 [10]: 0.25% | RRT 1.85 MW = 597 [10]: 0.07% | Total [10]: 1.12% | RRT 0.74 Epimer [11]: 0.23% | RRT 1.64 Mino [11]: 0.07% | RRT 1.67 MW = 556 [11]: 0.35% | Total [11]: 1.85% | RRT 0.74 Epimer [12]: 0.22% | RRT 1.64 Mino [12]: 0.11% | RRT 1.67 MW = 556 [12]: 0.29% | RRT 1.85 MW = 597 [12]: 0.09% | Total [12]: 2.38% | RRT 0.74 Epimer [13]: 0.24% | RRT 1.64 Mino [13]: 0.09% | RRT 1.67 MW = 556 [13]: 0.23% | Total [13]: 2.61% | RRT 1.67 MW = 556 [14]: 0.50% | RRT 1.85 MW = 597 [14]: 0.11% | Total [14]: 5.36% | RRT 0.12 MW = 633 [15]: BRL (BRL means below reporting limit (meaning less than 0.05% of tigecycline peak)) | RRT 0.64 9-Amino [15]: BRL (BRL means below reporting limit (meaning less than 0.05% of tigecycline peak)) | RRT 0.58 [16]: 0.08% | RRT 0.74 Epimer [16]: 0.20% | Strength [16]: 19.339 mg/mL | RRT 0.58 [17]: 0.06% | RRT 0.74 Epimer [17]: 0.19% | Strength [17]: 19.246 mg/mL | Strength (Run #C, 2° C., pH 7.7, Oxygen 2 mg/L, hours 1,4,8,10,12,24 at r6-r11, 8 h hold time): 19.031 mg/mL | RRT 0.74 Epimer [18]: 0.27% | Strength [18]: 19.415 mg/mL | RRT 0.58 [19]: 0.07% | RRT 0.74 Epimer [19]: 0.30% | Strength [19]: 19.048 mg/mL | RRT 0.58 [20]: 0.05% | RRT 0.74 Epimer [20]: 0.21% | Strength [20]: 19.226 mg/mL | RRT 1.12 (Run #C, 2° C., pH 7.7, Oxygen 2 mg/L, hours 1,4,8,10,12,24 at r17-r22): BRL (BRL means below reporting limit (meaning less than 0.05% of tigecycline peak)) | RRT 1.45 [21]: 0.07% | RRT 1.64 Mino [21]: 0.10% | RRT 1.85 MW = 597 [21]: 0.06% | Total [21]: 0.59% | RRT 1.64 Mino [22]: 0.09% | Total [22]: 0.60% | RRT 1.45 [23]: 0.13% | RRT 1.64 Mino [23]: 0.11% | RRT 1.85 MW = 597 [23]: 0.07% | Total [23]: 0.87% | RRT 1.85 MW = 597 [24]: 0.08% | Total [24]: 1.20% | Total (Run #C, 2° C., pH 7.7, Oxygen 2 mg/L, hours 1,4,8,10,12,24 at r17-r22, 12 h hold time): 1.38% | RRT 1.45 [25]: 0.06% | Total [25]: 1.52% | RRT 0.64 9-Amino (Run #D, 8° C., pH 7.7, Oxygen 2.0 mg/L, hours 1,4,8,10,12,24 at r6-r11): BRL (BRL means below reporting limit (meaning less than 0.05% of tigecycline peak)) | RRT 0.55 MW = 583 [26]: 0.08% | RRT 0.74 Epimer [26]: 0.19%
